# Test results taken from patent US20240182413A1, “INSECTICIDAL COMPOUNDS” (Pluton Biosciences, Inc., priority 2022, published 2024).
# Several values for one entry are separate records, joined by “and”; a condition that tells them apart may be missing. Identical values can stand only once. Entries after “also recorded” stand apart in the source; their conditions may differ. Like-named read-outs stand apart in the source and are kept apart here.
# Legend:
# [1] = tested on: Spodoptera frugiperda (fall armyworm) first instar larvae; assay: Spodoptera frugiperda killing assay (diet-surface overlay); type: in vivo; conditions: first instar larvae
# Protocol: Insect killing assays. Each compound was dissolved in dimethyl sulfoxide (DMSO). Killing dose curves were constructed for each compound by producing a two-fold dilution series of the compound (e.g., comprising approximately 16 serial dilutions of a stock for 3,3′-diindolylmethane and 3-((1H-Indol-2-yl)methyl)-1H-indole and comprising approximately 12 serial dilutions of a stock for 3,3′-diindolyl and 3,3′-(pyridin-4-ylmethylene)bis(1H-indole)). Dilutions were made in sterile NYSM broth as described above. The two-fold dilution series were tested in a killing bioassay as described below. Data were collected to construct a dose curve and determine the half-maximal lethal concentration (LC50) value.
# Bioassays were performed using first instar larvae of the Lepidopteran species Spodoptera frugiperda (fall armyworm), with an N=16 for each concentration of compound tested. S. frugiperda larvae were purchased from Benzon Research, Inc. (Carlisle, PA). A diet-surface overlay format was used in which 1 milliliter of standard lepidopteran diet was placed in each well. One hundred microliters of sample were pipetted into each well and allowed to dry. A DMSO control was included with each set of samples.
# During the development of embodiments of the technology described herein, experiments were conducted to test the killing of arundine against a panel of 11 insect species. […] Briefly, arundine was dissolved in dimethyl sulfoxide (DMSO). Killing dose curves were constructed by producing a two-fold dilution series of arundine. Dilutions were made in sterile NYSM as described. The two-fold dilution series were tested in a killing bioassay performed using first instar larvae of the species listed in Table 4, with an N=16 for each concentration of compound tested. A diet-surface overlay format was used in which 1 milliliter of standard lepidopteran diet was placed in each well. One hundred microliters of sample were pipetted into each well and allowed to dry. A DMSO control was included with each set of samples. […] Data were collected to construct a dose curve and determine the half-maximal lethal concentration (LC50) value.
# Cry1Fa resistant FAW = assay: Killing of Cry1Fa resistant fall armyworm; type: in vivo, Spodoptera frugiperda; conditions: 1000 ppm BIM compound, 20 μl on diet surface; Cry1 FAW neonates; 5-7 days
# Protocol: During the development of embodiments of the technology provided herein, experiments were conducted to test the killing potency of arundine-derived BIM compounds against strains of fall armyworm (FAW) that are resistant to Bacillus thuringiensis (Bt) insecticidal proteins (e.g., Cry1Fa and Vip3A). Susceptible FAW (Spodoptera frugiperda) was obtained from Benzon Research Inc, Lancaster, PA. Cry1Fa resistant FAW originating from Puerto Rico was reared in a facility by Genective (Weldon, IL). Vip3A resistant FAW originating from southern US was reared in a facility by Genective (Weldon, IL).
# FAW eggs were incubated at approximately 26° C. at 50% relative humidity until eclosion (approximately 3 days) and the hatch was timed to within 12 hours of infesting the diet plates. BIM compounds were obtained from frozen stocks, thawed, suspended in 5% DMSO along with NYSM buffer to provide a solution of 2000 ppm BIM compound in a total volume of 1.0 ml, and stored at −20° C. For testing, a single tube of each BIM compound sample was thawed at 4° C. NYSM buffer was warmed to room temperature. A volume of 750 μl. NYSM buffer was added to 750 μl from each 1.0-ml volume to prepare samples of 1.5 ml BIM compound at 1000 ppm for testing. A total of three BIM preparations per BIM molecule were prepared and tested for killing potency. Compounds tested were BIM-1, 11, 25, 26, 28, 29, 30, 32, 34. A solution of 5% DMSO in NYSM buffer was used as a negative control.
# A standard commercially available semi-solid lepidopteran diet was prepared following manufacturer's instructions (Frontier, multi-species diet). […] LB+Kanamycin (antibiotic) growth media is the negative control for bacterial cultures. Cry1Fa is a positive control prepared as E. coli cells expressing the full-length Cry1Fa protein resuspended in PBS buffer at half the volume of the original growth culture resulting in 2× concentration of cells. Vip3A is a positive control prepared as E. coli whole cell culture expressing Vip3A.
# For each of 3 replicates, 200 μl of diet was prepared in wells of a 96-well plate and the diet plates were warmed to room temperature prior to dispensing samples. After 750 μl NYSM buffer was added to 750 μl from each 1.0-ml volume to prepare samples of 1.5 ml BIM compound at 1000 ppm for testing, BIM solutions were vortexed and 20 μl were dispensed onto the diet surface in each of 16 wells using a repeating pipettor. These steps were repeated for each sample and control for each insect population being tested. BIM compound and control solutions were allowed to absorb into the diet in a biosafety hood until the diet surface was visibly dry. Once dry, wells were sealed with a clear membrane. Two pin holes were poked through the membrane in each well to maintain appropriate humidity level and aeration. Each well was infested with a single neonate larva, and the wells were resealed with perforated membrane to prevent escape. The infested plates were incubated in environmental chambers at 26° C. and 50% relative humidity for 5-7 days. All bioassays were assessed visually to record larval mortality and growth inhibition.
# Aedes aegypti larvae = assay: Aedes aegypti killing assay (larval bioassay, two-fold dilution series); type: in vivo; conditions: for killing activity against Aedes aegypti: larvae
# Protocol: Insect killing assays. Each compound was dissolved in dimethyl sulfoxide (DMSO). Killing dose curves were constructed for each compound by producing a two-fold dilution series for each compound (e.g., comprising approximately 20 serial dilutions of a stock). Dilutions were made in sterile nutrient yeast extract salt medium (NYSM) broth. The NYSM contained 8 g/L nutrient broth powder, 0.5 g/L yeast extract, 1 mM MgCl2, 700 μM CaCl2, and 50 μM MnCl2 in water. The two-fold dilution series were tested in a killing bioassay as described below. Data were collected to construct a dose curve and determine the half-maximal lethal concentration (LC50) value.
# Bioassays were performed using second or third instar Aedes aegypti larvae, with biological replication. Ae. aegpyti larvae were purchased from Benzon Research, Inc. (Carlisle, PA). Larvae were washed with sterile water before transfer to 24-well assay plates containing 1 mL of sterile water in each well. Each well contained 5 larvae. The final DMSO concentration in each assay well was 1%. Larval mortality was scored for each well at 24-hour timepoints after application. […] In Table 1, mean mortalities and standard deviations were calculated from at least three independent biological replicates. […] LC50 values were calculated using GraphPad Prism software.
# [2] = Spodoptera frugiperda, calculated from killing dose curves FIG. 3D to 3NN, read-out: LD50 (the source's name)
# [3] = calculated from killing dose curves FIG. 3D to 3NN, read-out: LD50 (the source's name)
# [4] = second or third instar larvae, mortalities at 72 hours, mean ± standard deviation, at least three biological replicates
# [5] = second or third instar larvae, mortalities at 72 hours, mean ± standard deviation, at least three biological replicates, read-out: LC50
compound,measurement,setting,value
Clc1ccc2c(C(c3ccc(Br)cc3)c3c[nH]c4cc(Cl)ccc34)c[nH]c2c1 [BIM-28],LC50,[1]; [2],371 µM
same,lethality,Cry1Fa resistant FAW,100%
Clc1ccc2c(Cc3c[nH]c4ccccc34)c[nH]c2c1 [BIM-36],LC50,[1]; [3],2457 µM
CCc1c[nH]c2ccccc12 [3-ethyl-1H-indole],LC50,"Aedes aegypti larvae; Aedes aegypti, second or third instar larvae, mortalities at 72 hours, mean ± standard deviation, at least three biological replicates, read-out: LC50",60 ± 24.2 µM
same,LC50,"Aedes aegypti larvae; Aedes aegypti, second or third instar larvae, mortalities at 72 hours, mean ± standard deviation, at least three biological replicates, read-out: LC50 (μg/mL)",8.7 ± 3.5 µg/mL
CC(C)(c1c[nH]c2ccccc12)c1c[nH]c2ccccc12 [BIM-4],LC50,[1]; [2],1810 µM
Clc1ccc(C(c2c[nH]c3cc(Cl)ccc23)c2c[nH]c3cc(Cl)ccc23)cc1 [BIM-33],LC50,[1]; [2],485 µM
"c1ccc2c(C(c3ccncc3)c3c[nH]c4ccccc34)c[nH]c2c1 [3,3′-(pyridin-4-ylmethylene)bis(1H-indole)]",LC50,"Aedes aegypti larvae; Aedes aegypti, 72 h",62.9 µg/mL and 194 µM
same,killing activity against Aedes aegypti,Aedes aegypti larvae,active
same,LC50,"[1]; Spodoptera frugiperda, N=16 per concentration, representative curve fit",120 µg/mL and 370 µM
same,activity against S. frugiperda,[1],active
Cc1cc2ccccc2[nH]1 [2-methindole],LC50 (μg/mL),Aedes aegypti larvae; [4],6.8 ± 0.5 µg/mL
same,LC50,Aedes aegypti larvae; [5],52.2 ± 3.6 µM
"c1ccc2c(-c3c[nH]c4ccccc34)c[nH]c2c1 [3,3′-diindolyl]",killing activity against Aedes aegypti,Aedes aegypti larvae,did not display any bioactivity; also recorded: does not have significant killing activity
same,LC50 (μg/mL),Aedes aegypti larvae; [4],>2500 µg/mL
same,LC50,Aedes aegypti larvae; [5],> 1000 µM
same,activity against S. frugiperda,[1],not active; also recorded: does not have significant killing activity
COc1ccc2c(Cc3c[nH]c4cc(OC)ccc34)c[nH]c2c1 [BIM-20],LC50,[1]; [3],>3000 µM
CCC(c1c[nH]c2cc(Cl)ccc12)c1c[nH]c2cc(Cl)ccc12 [BIM-23],LC50,[1]; [2],1350 µM
Cc1ccc2c(Cc3c[nH]c4cc(C)ccc34)c[nH]c2c1 [BIM-19],LC50,[1]; [2],1410 µM
Oc1ccc2[nH]ccc2c1 [5-hydroxyindole],LC50,"Aedes aegypti larvae; Aedes aegypti, 72 h",279 µg/mL and 2.09 mM
Cc1ccc(C(c2c[nH]c3cc(Cl)ccc23)c2c[nH]c3cc(Cl)ccc23)cc1 [BIM-29],LC50,[1]; [3],611 µM
same,lethality,Cry1Fa resistant FAW,100%
"Clc1ccc(C(c2c[nH]c3ccccc23)c2c[nH]c3ccccc23)cc1 [3,3′-((4-chlorophenyl)methylene)bis(1H-indole)]",LC50,"Aedes aegypti larvae; Aedes aegypti, 72 h",2.6 µg/mL and 7.3 µM
CC(c1c[nH]c2ccccc12)c1c[nH]c2ccccc12 [BIM-3],LC50,[1]; [2],1280 µM
Clc1ccc2c(C(c3ccc(Br)cc3)c3c[nH]c4ccccc34)c[nH]c2c1 (stereo not shown) [BIM-37 R/S 3:1],LC50,[1]; [3],576 µM
CCCC(c1c[nH]c2ccccc12)c1c[nH]c2ccccc12 [BIM-6],LC50,[1]; [2],3240 µM
"Cc1cn(C)c2ccccc12 [1,3 dimethylindole, 1,3-dimethylindole]",LC50,"Aedes aegypti larvae; Aedes aegypti, 72 h",13.8 µg/mL and 95.2 µM
Fc1ccc2c(Cc3c[nH]c4cc(F)ccc34)c[nH]c2c1 [BIM-13],LC50,[1]; [2],1850 µM
Clc1ccc2c(C(c3ccc(Br)cc3)c3c[nH]c4ccccc34)c[nH]c2c1 (stereo not shown) [BIM-37 R/S 1:1],LC50,[1]; [3],725 µM
CN(C)Cc1c[nH]c2ccccc12 [gramine],LC50,"Aedes aegypti larvae; Aedes aegypti, 72 h",189 µg/mL and 1.08 mM
